According to patent US11344627B2, “Dendrimer-exosome hybrid nanoparticles as a delivery platform” (WISCONSIN ALUMNI RESEARCH FOUNDATION, priority 2017, dated 2022):
“Also recorded” adds a separate entry of the source.

Tested on: HUVEC cells
Experiment: Immunostaining of P-selectin and VCAM-1 on endothelial cells upon TNF-α treatment
Format: cell-based, human
Conditions: TNF-α 20 ng/mL, 4 hrs, confocal
Procedure: Immunostaining: To determine P-selectin and VCAM-1 expression on endothelial cells upon TNF-α-treatment, HUVEC cells were cultured on a cover glass and treated with 20 ng/mL of TNF-α at 37° C. for 4 hrs. The cells were fixed with 4% paraformaldehyde and blocked using a 5% BSA solution in PBS for 30 min. The cells were then incubated with primary antibodies against P-selectin or VCAM-1 for 1 hr at room temperature. The cells were incubated with fluorescence-labeled secondary antibodies for 1 hr at room temperature. The cells were washed, mounted with a mounting medium, and observed using a confocal microscope (Zeiss, Dublin, Calif.).
Potential advantages of using hMSC-derived exosomes would include the utilization of the homing properties of hMSCs to inflamed endothelia that are frequently found in cancerous regions. […] Human umbilical vein endothelial cells (HUVEC) were used to determine if the exosomes could potentially interact with the cells upon activation using TNF-α. TNF-α is known to induce expression of vascular cell adhesion molecule-1 (VCAM-1) and P-selectin that are directly involved in the hMSC binding to endothelial layers. The expression of VLA-4 and CD162 that are ligands binding to VCAM-1 and P-selectin, respectively, from the exosomes was confirmed using western blotting (FIG. 9).

In the case of TNF-α, the P-selectin expression is reported as “overexpress; also recorded: increased” and the VCAM-1 expression is reported as “overexpress; also recorded: increased”.
